Results taken from EP4631503A1, “AVL-292 OR MK-5108 FOR USE IN THE TREATMENT OF PDAC” (priority 2024, dated 2025).
Like-named read-outs stand apart in the source and are kept apart here.

Tests used:
MTT cell viability assay = assay type: cell-based; settings: Homo sapiens, PANC-1, 48 h, Pane1 cells, two days
Procedure: Pane1 and HPAF II cells were cultured with DMEM (D0822, Sigma-Aldrich) supplemented with 10% fetal bovine serum (FBS, F7524, Sigma-Aldrich), 1% P/S (P4333, Sigma-Aldrich). For siRNA treatment, 200,000 cells for a 6well plate and 20,000 cells per well for a 96well plate were seeded. siRNAs were purchased in Origene, CDCA5 (SR314367, Origene), KIF18A (SR313129, Origene), KIF23 (SR306300, Origene), TPX2 (SR307905, Origene), and cells were transfected by Lipofectamine® RNAiMAX (13778-075, Invitrogen) for two days. Small molecules which repositioned were purchased by AVL-292 (HY-18012, MCE), BCI-50 (HY-17553, MCE), MK-5108 (HY-13252, MCE), AZD1208 (HY-15604, MCE), SKA-31 (HY111655, MCE), Y-26763 (HY-101069, MCE), Estropipate (HY-B1361, MCE), Tiquizium (sc-474386, Santa Cruz), Acyclovir (HY-17422, MCE), and Cyproterone acetate (HY-13604, MCE) and dissolved into DMSO. Drugs were treated to cells for two days at 10µM. Cell viability was measured by MTT assay (M6494, ThermoFisher) by following the manufacturer's instructions. O.D values were detected with a microplate reader (Hidex Sense Beta Plus).

HPAF II = test: MTT cell viability assay; assay type: cell-based; settings: Homo sapiens, 48 h
Procedure: Pane1 and HPAF II cells were cultured with DMEM (D0822, Sigma-Aldrich) supplemented with 10% fetal bovine serum (FBS, F7524, Sigma-Aldrich), 1% P/S (P4333, Sigma-Aldrich). […] Drugs were treated to cells for two days at 10µM. Cell viability was measured by MTT assay (M6494, ThermoFisher) by following the manufacturer's instructions. O.D values were detected with a microplate reader (Hidex Sense Beta Plus).

[1] = Western blot, apoptotic marker; assay type: cell-based; settings: apoptotic gene
Procedure: (§1) Pane1 and HPAF II cells were seeded into a 6-well plate at 200,000 cells per well concentration. After siRNA transfection and drug treatment, whole cell lysate was prepared with CelLytic M (C2978, Sigma-Aldrich) buffer and samples were prepared with 2x Laemmli Sample Buffer (1610737, Biorad) at 20µg protein lysate. SDS PAGE was performed Mini-PROTEAN® TGX™ Precast Gels (Bio-Rad) and transferred using Trans-Blot® Turbo™ Transfer System (Bio-Rad). CDCA5 (ab192237, abcam), KIF18A (ab72417, abcam), KIF23 (HPA068831, Sigma Aldrich), TPX2 (ab252944, abeam), Aurora A (ab108353, abeam), Aurora B (ab287960, abcam), PARP (9542S, Cell signaling), […] (ab2324, abcam), β-actin (ab8227, abeam), GAPDH (ab8245, abeam), and α-tubulin (ab7291, abcam) were blotted as a primary antibody for overnight. Secondary antibodies, Goat Anti-Rabbit HRP (ab205718) and goat anti-mouse IgG-HRP (sc2005, Santa Cruz Biotechnology, Inc.) were blotted for one hour. The protein band was detected with ImageQuantTMLAS 500 (29-0050-63, GE).

cleaved PRAP = test: Western blot, apoptotic marker; assay type: cell-based; settings: apoptotic gene
Procedure: as §1

AURKA = test: Western blot, protein expression level; assay type: cell-based; settings: cells, 10 µM, in words
Procedure: as §1

AURKB = test: Western blot, protein expression level; assay type: cell-based; settings: cells, 10 µM, in words
Procedure: as §1

CDCA5 = test: Western blot, protein expression level; assay type: cell-based; settings: cells, 10 µM, in words
Procedure: as §1

KIF18A = test: Western blot, protein expression level; assay type: cell-based; settings: Pane1 cells, 10 µM, in words
Procedure: as §1

KIF23 = test: Western blot, protein expression level; assay type: cell-based; settings: cells, 10 µM, in words
Procedure: as §1

TPX2 = test: Western blot, protein expression level; assay type: cell-based; settings: cells, 10 µM, in words
Procedure: as §1

[2] = taken orally, phase I trial; cited from earlier work
PDAC = settings: phase II clinical trials; cited from earlier work

C=CC(=O)Nc1cccc(Nc2nc(Nc3ccc(OCCOC)cc3)ncc2F)c1 [AVL-292]
viability at 10 µM (MTT cell viability assay): 60.7%
viability at 10 µM (HPAF II; HPAF-II): 71.6%
protein expression level of Cas9 [1]: increased
protein expression level of cleaved PRAP (cleaved PRAP): increased

O=C(O)[C@]1(Cc2cccc(Nc3nccs3)n2)CC[C@@H](Oc2cccc(Cl)c2F)CC1 [MK-5108]
viability at 10 µM (MTT cell viability assay): 45.8%
viability at 10 µM (HPAF II; HPAF II cells, 10µM, two days, read-out: viability): 69.5%
AURKA expression change (AURKA): over-expressed
AURKB expression change (AURKB): no obvious effect
CDCA5 expression change (CDCA5): over-expressed
KIF18A expression change (KIF18A): over-expressed
KIF23 expression change (KIF23): over-expressed
TPX2 expression change (TPX2): over-expressed
protein expression level of Cas9 [1]: increased
protein expression level of cleaved PRAP (cleaved PRAP): increased
tolerability in patients [2]: well tolerated

CN(C)C(=N)N=C(N)N [Metformin]
extended survival, average (PDAC): 0.8 months
